Assays:
Thrombin = Thrombin (Homo sapiens (Human), UniProt P00734); assay: Dose response assay for protease inhibitors: thrombin; format: biochemical; conditions: selectivity, thrombin over Factor XIa
In short: (§1)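 Glp-Pro-Arg-AMC substrate (thrombin, trypsin) or Pro-Phe-Arg-AMC/Boc-Leu-Gly-Arg-AMC (Factor Xa), diluted to 100 μM, in 20 mM Hepes pH 7.4, 150 mM NaCl, 0.02% Tween 20; enzyme diluted to 0.5 nM before addition. Two-fold serial compound dilutions; kinetic reads at 30° C. Data yield IC50 and Kon.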

Trypsin = assay: Dose response assay for protease inhibitors: trypsin; format: biochemical; conditions: selectivity, trypsin over Factor XIa
In short: as §1

[1] = Aqueous solubility in PBS by HPLC-UV/VIS; format: physicochemical; conditions: PBS pH 7.4, 2% DMSO, 24 h at room temperature; for solubility at 24 h: phosphate buffered saline, aqueous buffer, kinetic from dmso stock
Method: The following procedure was used to determine the aqueous solubility of a test compound in phosphate buffered saline (PBS-NaCl 137 mM, KCl 2.7 mM, Na2HPO4 8.1 mM, KH2PO4 1.5 mM, pH 7.4) in 96-well plate format by HPLC-UV/VIS analysis. The test compound was prepared at 200 μM in PBS from a 10 mM DMSO stock solution. The final DMSO concentration was 2%. The PBS buffer samples were mixed thoroughly followed by incubation at room temperature for 24 h. At the end of the incubation, the PBS buffer samples were centrifuged and supernatants analyzed by HPLC. The aqueous solubility (μM) of the test compound in PBS was determined by comparing the peak area of the principal peak in the calibration standard (200 μM) with the peak area of the corresponding peak in each of the PBS samples. The range of the assay was approximately 0.5 μM to 200 μM. The reference compounds used in each assay were metoprolol, rifampicin, ketoconazole, phenytoin, haloperidol, simvastatin, diethylstilbestrol, and tamoxifen ranking from fully soluble (200 μM) to poorly soluble (<1 μM).

[2] = Metabolic stability in dog hepatocytes; format: in vitro ADME; conditions: pooled cryopreserved hepatocytes; beagle dog hepatocytes, 2 μM compound; read-out: Dog Hepatocyte Stability (t1/2)
Method: The following procedure was used to determine the stability of test compounds in beagle dog hepatocytes in a 96-well plate format. The test compounds, including the controls, imipramine and 7-ethoxycoumarin, were dissolved at 10 mM in DMSO, followed by further 5-fold dilution with DMSO to 2 mM. Pooled cryopreserved beagle dog hepatocytes were thawed and transferred into complete medium. Cells were gently centrifuged (700 rpm for 5 min) and the pellet rinsed with KHB (Krebs Henseleit buffer). Cells were resuspended, counted using Trypan blue, and adjusted to 1 million cells/mL in KHB buffer. The 2 mM compound stock solutions were diluted 10-fold with acetonitrile, followed by a further 50-fold dilution with KHB buffer. 200 μL of these compound solutions were transferred to 96-well polypropylene assay plates and an equal volume of the hepatocyte solution was added and mixed to initiate the reaction (final assay concentrations were 2 μM compound and 500,000 cells/mL). Assay plates were incubated at 37° C. in 5% CO2 with gentle agitation. 50 μL aliquots were removed at multiple time points out to 180 minutes and quenched with 6 volumes of cold acetonitrile (containing 250 ng/mL of carbutamide and chrysin as internal standards) to terminate the reaction and precipitate protein. Quenched samples were maintained on ice. The quenched samples were centrifuged at 2000×g (3100 rpm) for 10 minutes at 4° C. 50 μL aliquots of the supernatants were removed and diluted with 100 μL Milli-Q water to reduce the % organic content prior to bioanalysis by LC-MS/MS. Peak areas corresponding to the test compound were recorded. The compound remaining was calculated by comparing the peak area at each time point to time zero. Data were analyzed and results were calculated using Microsoft Excel 2010.

Row | Compound | Ratio: Thrombin/FXIa (Thrombin) | solubility at 24 h [1] | half-life at 2 μM [2] | Aqueous Solubility (uM, in PBS) [1] | Ratio: Trypsin/FXIa (Trypsin)
1 | CC[C@@H](NC(=O)N1C(=O)[C@H](Cc2ccnc(N)c2)[C@H]1C(=O)N(C)c1ccnn1C)c1cccc(Cl)c1 [Compound 1-4, (2S,3R)-3-((2-aminopyridin-4-yl)methyl)-N2-(1-methyl-1H-pyrazol-5-yl)-N1-((R)-1-(3-chlorophenyl)propyl)-N2-methyl-4-oxoazetidine-1,2-dicarboxamide] | I (“I” indicates > 500) | > 100 µM | 1.02 to 2 h | – | G (“G” indicates 1-100)
2 | CC[C@@H](NC(=O)N1C(=O)[C@H](Cc2ccnc(N)c2)[C@H]1C(=O)N(C)c1cccs1)c1ccccc1 [Compound 1-10, (2S,3R)-3-((2-aminopyridin-4-yl)methyl)-N2-(thiophen-2-yl)-N1-((R)-1-phenylpropyl)-N2-methyl-4-oxoazetidine-1,2-dicarboxamide] | H (“H” indicates 101-1000) | > 100 µM | < 1 h | – | G (“G” indicates 1-100)
3 | CC[C@@H](NC(=O)N1C(=O)[C@H](Cc2ccnc(N)c2)[C@H]1C(=O)N(C)c1nccn1C)c1ccccc1 [Compound 1-13, (2S,3R)-3-((2-aminopyridin-4-yl)methyl)-N2-(1-methyl-1H-imidazol-2-yl)-N1-((R)-1-phenylpropyl)-N2-methyl-4-oxoazetidine-1,2-dicarboxamide] | I (“I” indicates > 500) | > 100 µM | 2.02 to 4 h | – | G (“G” indicates 1-100)
4 | CC[C@@H](NC(=O)N1C(=O)[C@H](Cc2cc(C)nc(N)c2)[C@H]1C(=O)N(C)c1ccn(C)n1)c1cccc(C)c1 [Compound 1-22, (2S,3R)-3-((2-amino-6-methylpyridin-4-yl)methyl)-N2-(1-methyl-1H-pyrazol-3-yl)-N1-((R)-1-(3-methylphenyl)propyl)-N2-methyl-4-oxoazetidine-1,2-dicarboxamide] | H (“H” indicates 101-1000) | > 100 µM | 2.02 to 4 h | – | G (“G” indicates 1-100)
5 | CN(C(=O)[C@@H]1[C@@H](Cc2ccnc(N)c2)C(=O)N1C(=O)N[C@@H](C1CCCCC1)C(F)(F)F)c1ccn(C)n1 [Compound 1-32, (2S,3R)-3-((2-aminopyridin-4-yl)methyl)-N2-(1-methyl-1H-pyrazol-3-yl)-N1-((S)-1-cyclohexyl-2,2,2-trifluoroethyl)-N2-methyl-4-oxoazetidine-1,2-dicarboxamide] | H (“H” indicates 101-1000) | > 100 µM | < 1 h | – | G (“G” indicates 1-100)
6 | CC[C@@H](NC(=O)N1C(=O)[C@H](Cc2ccnc(N)c2)[C@H]1C(=O)N(C)c1nccn1C)c1cccc(Cl)c1 [Compound 1-35, (2S,3R)-3-((2-aminopyridin-4-yl)methyl)-N2-(1-methyl-1H-imidazol-2-yl)-N1-((R)-1-(3-chlorophenyl)propyl)-N2-methyl-4-oxoazetidine-1,2-dicarboxamide] | H (“H” indicates 101-1000) | > 100 µM | 1.02 to 2 h | – | G (“G” indicates 1-100)

Further lines, with some results ahead:

Row | Ratio: Thrombin/FXIa (Thrombin) | solubility at 24 h [1] | half-life at 2 μM [2] | Aqueous Solubility (uM, in PBS) [1] | Compound | Ratio: Trypsin/FXIa (Trypsin)
7 | H (“H” indicates 101-1000) | > 100 µM | > 4 h | – | CC[C@@H](NC(=O)N1C(=O)[C@H](Cc2ccnc(N)c2)[C@H]1C(=O)N(C)c1ccn(C)n1)c1ccccc1 [Compound 1-3, (2S,3R)-3-((2-aminopyridin-4-yl)methyl)-N2-(1-methyl-1H-pyrazol-3-yl)-N1-((R)-1-phenylpropyl)-N2-methyl-4-oxoazetidine-1,2-dicarboxamide] | G (“G” indicates 1-100)
8 | G (“G” indicates 1-100) | > 100 µM | > 4 h | – | CC[C@@H](NC(=O)N1C(=O)[C@H](Cc2ccnc(N)c2)[C@H]1C(=O)N(C)c1cscn1)c1ccccc1 [Compound 1-8, (2S,3R)-3-((2-aminopyridin-4-yl)methyl)-N2-(4-thiazolyl)-N1-((R)-1-phenylpropyl)-N2-methyl-4-oxoazetidine-1,2-dicarboxamide] | G (“G” indicates 1-100)
9 | G (“G” indicates 1-100) | > 100 µM | > 4 h | – | CC[C@@H](NC(=O)N1C(=O)[C@H](Cc2cc(C)nc(N)c2)[C@H]1C(=O)N(C)c1cnn(C)c1)c1cccc(Cl)c1 [Compound 1-15, (2S,3R)-3-((2-amino-6-methylpyridin-4-yl)methyl)-N2-(1-methyl-1H-pyrazol-4-yl)-N1-((R)-1-(3-chlorophenyl)propyl)-N2-methyl-4-oxoazetidine-1,2-dicarboxamide] | G (“G” indicates 1-100)
10 | H (“H” indicates 101-1000) | > 100 µM | 1.02 to 2 h | – | CC[C@@H](NC(=O)N1C(=O)[C@H](Cc2ccnc(N)c2)[C@H]1C(=O)N(C)c1cscn1)c1cccc(Cl)c1 [Compound 1-17, (2S,3R)-3-((2-aminopyridin-4-yl)methyl)-N2-(4-thiazolyl)-N1-((R)-1-(3-chlorophenyl)propyl)-N2-methyl-4-oxoazetidine-1,2-dicarboxamide] | G (“G” indicates 1-100)
11 | G (“G” indicates 1-100) | > 100 µM | 2.02 to 4 h | – | CC[C@@H](NC(=O)N1C(=O)[C@H](Cc2ccnc(N)c2)[C@H]1C(=O)N(C)c1cnn(C)c1)c1ccc(C)nc1 [Compound 1-18, (2S,3R)-3-((2-aminopyridin-4-yl)methyl)-N2-(1-methyl-1H-pyrazol-4-yl)-N1-((R)-1-(6-methylpyridin-3-yl)propyl)-N2-methyl-4-oxoazetidine-1,2-dicarboxamide] | G (“G” indicates 1-100)
12 | H (“H” indicates 101-1000) | > 100 µM | 1.02 to 2 h | – | CC[C@@H](NC(=O)N1C(=O)[C@H](Cc2ccnc(NC)c2)[C@H]1C(=O)N(C)c1nccn1C)c1cccc(Cl)c1 [Compound 1-41, (2S,3R)-3-((2-methylaminopyridin-4-yl)methyl)-N2-(1-methyl-1H-imidazol-2-yl)-N1-((R)-1-(3-chlorophenyl)propyl)-N2-methyl-4-oxoazetidine-1,2-dicarboxamide] | G (“G” indicates 1-100)
13 | H (“H” indicates 101-1000) | – | – | W (“W” indicates > 100 μM) | (2S,3R)-3-((2-amino-6-methylpyridin-4-yl)methyl)-N2-(1-methyl-1H-imidazol-2-yl)-N1-((R)-1-(3-fluorophenyl)propyl)-N2-methyl-4-oxoazetidine-1,2-dicarboxamide [Compound 1-120] | G (“G” indicates 1-100)

Reference: patent US11691962B2 (eXIthera Pharmaceuticals, Inc., priority 2018, dated 2023)
